In ChEMBL document CHEMBL1140021, “Ferulic acid and benzothiazole dimer derivatives with high binding affinity to beta-amyloid fibrils” (Bioorg Med Chem Lett, 2007):
pKi: −log10 of the molar value.

Assay: Displacement of [125I]TZDM from human beta amyloid fibril 1-42

## COc1cc(/C=C/C(=O)O)ccc1N1CCN(c2ccc(/C=C/C(=O)O)cc2OC)CC1
  pKi: 8.87

## COc1cc(/C=C/C(=O)O)ccc1OCCOc1ccc(N(C)C)cc1OC
  pKi: 9.00

## Cc1ccc2nc(NCCNc3nc4ccc(C)cc4s3)sc2c1
  pKi: 9.09

## COc1cc(/C=C/C(=O)O)ccc1OCCOc1ccc(N(CC(=O)O)CC(=O)O)cc1OC
  pKi: 9.24

## Fc1ccc2nc(NCCNc3nc4ccc(F)cc4s3)sc2c1
  pKi: 9.12

## Brc1ccc2nc(NCCNc3nc4ccc(Br)cc4s3)sc2c1
  pKi: 8.95

## Nc1ccc2nc(NCCNc3nc4ccc(N)cc4s3)sc2c1
  pKi: 9.16

## CS(=O)(=O)c1ccc2nc(NCCNc3nc4ccc(S(C)(=O)=O)cc4s3)sc2c1
  pKi: < 8.00

## CN(CCN(C)c1nc2ccc(Cl)cc2s1)c1nc2ccc(Cl)cc2s1
  pKi: 9.19

## CN(CCN(C)c1nc2ccc(S(C)(=O)=O)cc2s1)c1nc2ccc(S(C)(=O)=O)cc2s1
  pKi: 9.26

## CN(CCN(C)c1nc2ccc(N)cc2s1)c1nc2ccc(N)cc2s1
  pKi: 9.16

## COc1cc(/C=C/C(=O)O)ccc1OCCOc1ccc(/C=C/C(=O)O)cc1OC
  pKi: 9.22

## CN(CCN(C)c1nc2ccccc2s1)c1nc2ccccc2s1
  pKi: 9.28

## CN(CCN(C)c1nc2ccc(F)cc2s1)c1nc2ccc(F)cc2s1
  pKi: 8.86

## CN(CCN(C)c1nc2ccc(Br)cc2s1)c1nc2ccc(Br)cc2s1
  pKi: 9.26

## COc1cc(/C=C/C(=O)O)ccc1N(C)CCN(C)c1ccc(/C=C/C(=O)O)cc1OC
  pKi: 9.14

## c1ccc2sc(NCCNc3nc4ccccc4s3)nc2c1
  pKi: 9.15

## Clc1ccc2nc(NCCNc3nc4ccc(Cl)cc4s3)sc2c1
  pKi: 9.02

## Cc1ccc2nc(N(C)CCN(C)c3nc4ccc(C)cc4s3)sc2c1
  pKi: 9.21

## COc1cc(/C=C/C(=O)O)ccc1O [FERULATE]
  pKi: 9.11

## [11CH3]Nc1ccc(-c2nc3ccc(O)cc3s2)cc1 [PITTSBURGH COMPOUND B]
  pKi: 9.11
